Consider 15 molecules from patent US10696674B2, “Spirolactams as inhibitors of ROCK” (BRISTOL-MYERS SQUIBB COMPANY, priority 2016, dated 2020).

Each structure is given as a SMILES string.

ROCK2, sequence (O75116 whole entry, species assumed): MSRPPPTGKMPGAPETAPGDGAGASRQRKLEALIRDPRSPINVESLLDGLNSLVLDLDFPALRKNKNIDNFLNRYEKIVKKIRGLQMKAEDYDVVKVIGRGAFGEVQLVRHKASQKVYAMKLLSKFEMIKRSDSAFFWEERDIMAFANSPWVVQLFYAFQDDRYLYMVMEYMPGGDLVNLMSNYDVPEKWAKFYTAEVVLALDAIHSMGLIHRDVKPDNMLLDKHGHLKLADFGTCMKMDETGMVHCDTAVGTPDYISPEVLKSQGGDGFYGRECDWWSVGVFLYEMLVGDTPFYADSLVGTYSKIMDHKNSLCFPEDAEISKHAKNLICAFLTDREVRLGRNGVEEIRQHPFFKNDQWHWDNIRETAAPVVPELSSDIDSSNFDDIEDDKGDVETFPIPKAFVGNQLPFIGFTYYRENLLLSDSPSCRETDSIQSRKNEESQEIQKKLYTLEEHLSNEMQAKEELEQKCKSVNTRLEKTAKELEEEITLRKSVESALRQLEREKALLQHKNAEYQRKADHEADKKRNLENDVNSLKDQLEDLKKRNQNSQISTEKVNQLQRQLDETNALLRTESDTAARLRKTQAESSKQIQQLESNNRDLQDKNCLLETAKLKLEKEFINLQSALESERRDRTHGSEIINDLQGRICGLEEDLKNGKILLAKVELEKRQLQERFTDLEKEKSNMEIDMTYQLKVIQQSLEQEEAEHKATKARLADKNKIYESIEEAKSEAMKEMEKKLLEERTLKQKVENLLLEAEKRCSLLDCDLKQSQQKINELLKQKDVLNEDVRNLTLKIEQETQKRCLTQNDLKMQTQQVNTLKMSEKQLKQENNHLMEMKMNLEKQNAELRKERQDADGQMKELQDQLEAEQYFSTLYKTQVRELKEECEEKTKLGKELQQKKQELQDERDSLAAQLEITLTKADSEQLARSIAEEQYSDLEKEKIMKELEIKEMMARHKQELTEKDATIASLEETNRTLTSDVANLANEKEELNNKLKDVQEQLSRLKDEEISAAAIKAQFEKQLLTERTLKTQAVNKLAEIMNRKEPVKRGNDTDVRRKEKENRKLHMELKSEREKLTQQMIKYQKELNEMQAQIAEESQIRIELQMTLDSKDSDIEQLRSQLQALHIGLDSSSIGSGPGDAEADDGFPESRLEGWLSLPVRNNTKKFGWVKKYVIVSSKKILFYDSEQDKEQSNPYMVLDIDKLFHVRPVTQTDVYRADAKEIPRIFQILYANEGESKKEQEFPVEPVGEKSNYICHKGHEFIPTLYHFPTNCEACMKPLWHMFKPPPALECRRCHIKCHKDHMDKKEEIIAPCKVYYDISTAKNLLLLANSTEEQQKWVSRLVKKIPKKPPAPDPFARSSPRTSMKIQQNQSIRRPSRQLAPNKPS

The target in this assay is ROCK2 (Homo sapiens, UniProt O75116). Briefly: ROCK2 assay (Caliper LABCHIP peptide phosphorylation). The class given is biochemical. The following applies: 5 μM ATP, 1.5 μM peptide substrate. The protocol:
The effectiveness of compounds of the present invention as ROCK inhibitors can be determined in a 30 μL assay containing 20 mM HEPES, pH 7.5, 20 mM MgCl2, 0.015% Brij-35, 4 mM DTT, 5 μM ATP and 1.5 μM peptide substrate (FITC-AHA-AKRRRLSSLRA-OH) (SEQ ID NO.1). Compounds were dissolved in DMSO so that the final concentration of DMSO was <2%, and the reaction was initiated with Rho kinase variants. After incubation, the reaction was terminated by the addition of EDTA and the phosphorylated and non-phosphorylated peptides separated using a LABCHIP® 3000 Reader (Caliper Life Sciences). […] Compounds were tested in dose-response format, and the inhibition of kinase activity was calculated at each concentration of compound. The inhibition data were fit using a curve-fitting program to determine the IC50; i.e., the concentration of compound required to inhibit 50% of kinase activity.
Representative Examples were tested in the ROCK2 assay described above and found having ROCK2 inhibitory activity. The ranges of the ROCK2 IC50 values are as follows: ROCK2 IC50: ++++ (<3 nM) +++ (3-30 nM) ++ (30-300 nM) + (300-2000 nM)
`COc1ccc2c(c1)CC1(CCN(c3ccc(-c4cn[nH]c4)cc3)C1=O)C2` (single isomer, unassigned) [Example 22, 1′-(4-(1H-Pyrazol-4-yl)phenyl)-5-methoxy-1,3-dihydrospiro[indene-2,3′-pyrrolidin]-2′-one] had a half-maximal inhibitory concentration (IC50) of less than 3 nM.

In turn, `O=C1N(c2ccc(-c3cn[nH]c3)cc2)CCC12Cc1ccccc1O2` (single isomer, unassigned) [Example 30, 1′-(4-(1H-Pyrazol-4-yl)phenyl)-3H-spiro[benzofuran-2,3′-pyrrolidin]-2′-one] gave a concentration for half-maximal inhibition (IC50) of 30 to 300 nM.

In turn, `O=C1N(c2ccc(-c3cn[nH]c3)cc2)CCC12Cc1ncccc1N2` (stereo not drawn) [Example 28, 1-(4-(1H-Pyrazol-4-yl)phenyl)-1′,3′-dihydrospiro[pyrrolidine-3,2′-pyrrolo[3,2-b]pyridin]-2-one] registered an IC50 of 30 to 300 nM.

`O=C1N(c2ccc(-c3ccncc3)cc2)CCC12Cc1ccccc1O2` (stereo not drawn) [Example 46, 1′-(4-(Pyridin-4-yl)phenyl)-3H-spiro[benzofuran-2,3′-pyrrolidin]-2′-one]: the IC50 lay within 3 to 30 nM.

With `O=C1N(c2ccc(-c3cn[nH]c3)cc2)CC(CO)[C@]12Cc1ccccc1N2` (stereo partly drawn) [Example 55, (2R)-1′-(4-(1H-pyrazol-4-yl)phenyl)-4′-(hydroxymethyl)spiro[indoline-2,3′-pyrrolidin]-2′-one], the IC50 is 30 to 300 nM.

`COc1cc(F)c2c(c1)NC1(CCN(c3ccc(-c4cn[nH]c4)cc3)C1=O)C2` (racemic) [Example 38, 1′-(4-(1H-Pyrazol-4-yl)phenyl)-4-fluoro-6-methoxyspiro[indoline-2,3′-pyrrolidin]-2′-one] showed an IC50 of less than 3 nM.

In turn, `COc1nc(N2CCC3(Cc4ccccc4N3)C2=O)ccc1-c1cn[nH]c1` (stereo not drawn) [Example 10, 1′-(6-methoxy-5-(1H-pyrazol-4-yl)pyridin-2-yl)spiro[indoline-2,3′-pyrrolidin]-2′-one] came in with an IC50 of less than 3 nM.

In turn, `COc1ccc2c(c1)CC1(CCN(c3ccc(-c4cn[nH]c4)c(OC)n3)C1=O)C2` (single isomer, unassigned) [Example 19, 5-Methoxy-1′-(6-methoxy-5-(1H-pyrazol-4-yl)pyridin-2-yl)-1,3-dihydrospiro[indene-2,3′-pyrrolidin]-2′-one] gave an IC50 of 300 to 2000 nM.

Turning to `COc1cc(F)c2c(c1)NC1(CCN(c3ccc(-c4cn[nH]c4)cc3)C1=O)C2` (single isomer, unassigned) [Example 39, 1′-(4-(1H-Pyrazol-4-yl)phenyl)-4-fluoro-6-methoxyspiro[indoline-2,3′-pyrrolidin]-2′-one], the IC50 was in the range of 300 to 2000 nM.

Molecule `O=C1N(c2ccc(-c3cn[nH]c3)cc2)CC(CO)C12Cc1ccccc1N2` (stereo not drawn) [Example 52, 1′-(4-(1H-pyrazol-4-yl)phenyl)-4′-(hydroxymethyl)spiro[indoline-2,3′-pyrrolidin]-2′-one] had an IC50 of less than 3 nM.

Consider `O=C1N(c2ccc(-c3cn[nH]c3)cc2)CCC12Cc1ccccc1N2` (single isomer, unassigned) [Example 2, 1′-(4-(1H-Pyrazol-4-yl)phenyl)spiro[indoline-2,3′-pyrrolidin]-2′-one], for which the IC50 was less than 3 nM.

As to `O=C1N(c2ccc(-c3cn[nH]c3)cc2)CCC12Cc1ccccc1N2` (single isomer, unassigned) [Example 3, 1′-(4-(1H-Pyrazol-4-yl)phenyl)spiro[indoline-2,3′-pyrrolidin]-2′-one], the IC50 lay within 30 to 300 nM.

With `O=C1N(c2ccc(-c3cn[nH]c3)cc2)CC(CO)[C@@]12Cc1ccccc1N2` (stereo partly drawn) [Example 54, (2S)-1′-(4-(1H-pyrazol-4-yl)phenyl)-4′-(hydroxymethyl)spiro[indoline-2,3′-pyrrolidin]-2′-one], the IC50 is less than 3 nM.

For `O=C1N(c2ccc(-c3cn[nH]c3)cc2)CCC12CCc1ccccc1O2` (stereo not drawn) [Example 50, 1′-(4-(1H-pyrazol-4-yl)phenyl)spiro[chromane-2,3′-pyrrolidin]-2′-one], the half-maximal inhibitory concentration (IC50) lay in the range of 30 to 300 nM.

As to `Cc1cccc2c1CC1(CCN(c3ccc(-c4cn[nH]c4)cc3)C1=O)N2` (stereo not drawn) [Example 27, 1′-(4-(1H-Pyrazol-4-yl)phenyl)-4-methylspiro[indoline-2,3′-pyrrolidin]-2′-one], the IC50 fell in the range of 3 to 30 nM.
